In brackets after ≈: the same amount, converted by molar mass.
What was measured:
[1] = biological target: T1, plasma membrane H+ ATPase (Candida albicans, UniProt P28877); assay: cell-based; parameters: species or system C. albicans D15.9 (FLC-resistant)
T1 construct: endogenous in cells; host or cells: C. albicans ATCC 90028; clinical isolates C. albicans D27 (FLC-susceptible) and D15.9 (FLC-resistant); mid-log phase whole cells
Description: (§1) The proton pumping activity of C. albicans was determined by monitoring acidification of external medium by measuring pH as describe earlier. In brief, the mid-log phase cells were harvested from SD medium by centrifugation at 3000 rpm for 15 min which is followed by three washings with phosphate buffer saline (PBS). A solution containing 0.1 M KCl and 0.1 mM CaCl2 in distilled water was prepared. Compounds 3a and 3b at the concentrations of 50 and 100 μg/mL were separately added in this solution. […] Initial pH was adjusted to 7.0 using 0.01 M HCl/NaOH. Approximately 0.2 g of cells were suspended in each set of solution. Suspension was kept in a double-jacketed glass container with constant stirring. Again, the pH of suspension was maintained as 7.0 for 1 min by using 0.01 N NaOH. The rate of H^+ extrusion was then monitored and calculated from the volume of 0.01 N NaOH consumed per min per mg weight of cells. Glucose has been reported as the stimulator of proton extrusion pump. Therefore above experiment was also repeated in the presence of 5 mM of glucose.

[2] = biological target: T1, plasma membrane H+ ATPase; assay: Proton extrusion measurement (H+ efflux); type: cell-based, C. albicans D27 (FLC-susceptible)
Description: as §1

[3] = biological target: T1, plasma membrane H+ ATPase; assay: Proton extrusion measurement (H+ efflux); type: cell-based, C. albicans ATCC 90028; conditions: glucose 5mM alone
Description: as §1

[4] = tested on: C. albicans D15.9 (FLC-resistant clinical isolate); assay: Broth dilution IC50 / MIC determination; type: cell-based; conditions: Candida albicans; for IC50: 24 h, read-out: Anti-Candida Activity (IC50± S.D.) C. albicans D15.9
Description: (§2) Broth dilution technique was employed to determine the IC50 values of all the synthesized 1,2,3 triazole derivatives (3a-c) against C. albicans ATCC 90028, C. glabrata ATCC 90030, C. tropicalis ATCC 750 and four clinical isolates of C. albicans namely D27, D31, D39 (FLC-sensitive) and D15.9 (FLC-resistant). The strains were maintained on yeast extract:peptone:dextrose ([…]) nutrient agar (2.5%) slants at 4°C. The test compounds were dissolved in DMSO with less than 4% concentration of it in the final test volume. Different concentrations (1000… 7.8 μg/mL) of test compounds in Sabouraud dextrose (SD) broth medium were dispensed into the wells, then inoculated with the test organism with approx. 2.5 × 10^3 cells/mL and incubated at 37°C for 24 h. After incubation period, the optical density was measured at 600 nm by using Thermo Scientific Multiskan Go plate reader. […] All the experiments were done in triplicate at separate times.

[5] = tested on: C. albicans D39 (FLC-sensitive clinical isolate); assay: Broth dilution IC50 determination; type: cell-based; conditions: Candida albicans, 24 h; read-out: Anti-Candida Activity (IC50± S.D.) C. albicans D39
Description: as §2

C. albicans ATCC 90028 = assay: Broth dilution IC50 determination; type: cell-based; conditions: Candida albicans, ATCC90028, SD broth, 37°C, 24 h, OD 600 nm, read-out: Anti-Candida Activity (IC50± S.D.) C. albicans ATCC90028
Description: as §2

C. tropicalis ATCC 750 = assay: Broth dilution IC50 determination; type: cell-based; conditions: Candida tropicalis, ATCC750, SD broth, 37°C, 24 h, OD 600 nm, read-out: Anti-Candida Activity (IC50± S.D.) C. tropicalis ATCC750
Description: as §2

[6] = tested on: C. albicans D31 (FLC-sensitive clinical isolate); assay: Broth dilution IC50 determination; type: cell-based; conditions: Candida albicans, 24 h; read-out: Anti-Candida Activity (IC50± S.D.) C. albicans D31
Description: as §2

C. glabrata ATCC 90030 = assay: Broth dilution IC50 determination; type: cell-based; conditions: Nakaseomyces glabratus, ATCC90030, SD broth, 37°C, 24 h, OD 600 nm, read-out: Anti-Candida Activity (IC50± S.D.) C. glabrata ATCC90030
Description: as §2

[7] = tested on: C. albicans D27 (FLC-sensitive clinical isolate); assay: Broth dilution IC50 determination; type: cell-based; conditions: Candida albicans, 24 h; read-out: Anti-Candida Activity (IC50± S.D.) C. albicans D27
Description: as §2

[8] = Cell proliferation assay (cytotoxicity); type: cell-based; conditions: monkey, Vero cells (monkey kidney fibroblasts), positive control
Description: The in vitro cytotoxicity of compounds 3a and 3b to mammalian cells was also determined. The assay was performed in 96-well tissue culture-treated plates as described earlier. Vero cells (monkey kidney fibroblasts) were seeded to the wells of 96-well plate at a density of 25,000 cells/well and incubated for 24 h. Samples at different concentrations were added and plates were again incubated for 48 h. The number of viable cells was determined by Neutral Red assay. IC50 values were obtained from dose response curves. Doxorubicin was used as a positive control for cytotoxicity.

Hemolytic assay = type: cell-based; conditions: human, 37°C, read-out: Hemolysis of hRBCs
Description: Human blood from a healthy individual was collected in tubes containing EDTA as anti-coagulant. The erythrocytes were harvested by centrifugation for 10 min at 2000 rpm and 20°C, washed three times in PBS. To the pellet, PBS was added to yield a 10% (v/v) erythrocytes/PBS suspension. The 10% suspension was then diluted 1:10 in PBS. From each suspension, 100 μL was added in triplicate to 100 μL of a different dilution series of test compounds in the same buffer in micro centrifuge tubes. […] The tubes were incubated for 1 h at 37°C and then centrifuged for 10 min at 2000 rpm and 20°C. From the supernatant, 150 μL was transferred to a flat-bottomed microtiter plate (Tarson), and the absorbance was measured spectrophotometrically at 450 nm. The hemolysis percentage was calculated by following equation: %Hemolysis=[(A450oftestcompoundtreatedsample−A450ofbuffertreatedsample)÷(A450of1%TritonX−100treatedsample−A450ofbuffertreatedsample)]×100

C. albicans = assay: Disk diffusion assay, appearance of zones (strains not distinguished); type: cell-based
Description: (§3) Disk diffusion assay was performed using C. albicans ATCC 90028 (standard), the two clinical isolates, C. albicans D27 (FLC-susceptible), and C. albicans D15.9 (FLC-resistant) for the lead inhibitors 3a and 3b. The C. albicans cells were inoculated into liquid SD medium and grown over night at 37°C. The cells were then centrifuged at 3000 rpm for 5 min, washed three times with PBS and then suspended in PBS again. Approximately, 10^5 cells/mL were inoculated into molten SD agar medium at 42°C and poured into 100-mm-diameter petriplates. Sterilized 4 mm disks of Whatman paper were placed on solid agar and 1, 2, and 4 μL of 3a and 2, 4, and 8 μL of 3b from the stock solution of 10 mg/mL were spotted on the disk. […] The diameter of zone of inhibition (ZOI) was recorded in millimetres after 48 h and was compared with that of control. This experiment was repeated thrice and values were shown in terms of mean ±standard error of mean.

[9] = tested on: C. albicans ATCC 90028 (Standard); assay: Growth assay (growth curve); type: cell-based; conditions: 40 μg/mL of FLC
Description: (§4) The C. albicans cells were freshly revived by subculture on the SD agar plate. A loopful of inoculum was introduced into the SD broth and cells were grown for 16 h at 37°C before use. Approximately 2×10^3 cells/mL were then inoculated into the freshly prepared 50 mL sterile SD medium. […] At predetermined time periods (0, 2, 4, 6, 8, 10, 12, 14, 16, 18, 20 22, and 24 after incubation with agitation at 37°C), 1 mL aliquot of each sample was removed from the conical flask and growth was measured tubidometrically at 600 nm using Thermo Multiskan spectrophotometer. Optical density was recorded for each concentration against time (h).

[10] = tested on: C. albicans D27 (FLC-susceptible); assay: Growth assay (growth curve); type: cell-based; conditions: 40 μg/mL of FLC
Description: as §4

[11] = tested on: C. albicans D15.9 (FLC-resistant); assay: Growth assay (growth curve); type: cell-based; conditions: 40 μg/mL of FLC
Description: as §4

ergosterol biosynthesis [12] = assay: Ergosterol estimation assay; conditions: 40 μg/mL of FLC, 16 h
[13] = tested on: C. albicans ATCC 90028, C. albicans D27 (FLC-susceptible) and C. albicans D15.9 (FLC-resistant); assay: Time kill curve study, three strains; type: cell-based; conditions: 40 μg/mL; C. albicans standard and FLC-resistant
Description: Time-kill curves were used for testing the fungicidal or fungistatic nature of the lead inhibitors 3a and 3b. The experimental procedure was performed according to the method reported by Wang et al.. C. albicans ATCC 90028, C. albicans D27 (FLC-susceptible) and C. albicans D15.9 (FLC-resistant) strains were used as test organisms. Fluconazole was used as a positive control. Freshly prepared sterile YEPD medium was inoculated by fresh culture (approx. 2×10^3 cells) of test organisms in different conical flasks. The cells were exposed to the test compounds at 2MIC, MIC and MIC/2 values, separately. All the conical flasks having different sets of test compounds and concentrations were incubated at 37°C and 160 rpm. At predetermined time points (0, 4, 12, 24, and 48 h after incubation with agitation at 37°C), a 100-μL aliquot was removed from every solution and appropriately diluted in sterile water. A 100-μl aliquot from each dilution was spread over the YEPD agar plate. Colony counts were determined after incubation at 37°C for 24 h. All the time-kill curve experiments were conducted in duplicate and mean colony count data (log10 CFU/mL) were plotted as a function of time for each strain.

[14] = tested on: C. albicans ATCC 90028 (Standard); assay: Disk diffusion assay; type: cell-based; conditions: 20 μg per disk, 48 h
Description: as §3

[15] = tested on: C. albicans D27 (FLC-susceptible); assay: Disk diffusion assay; type: cell-based; conditions: Candida albicans; 20 μg per disk, 48 h; read-out: Zone of Inhibition
Description: as §3

[16] = tested on: C. albicans D15.9 (FLC-resistant); assay: Disk diffusion assay; type: cell-based; conditions: 48 h
Description: as §3

ergosterol biosynthesis [17] = assay: Ergosterol estimation assay; conditions: 40 μg/mL of FLC, 16 h; remark: listed apart in the source

T1 sequence (P28877 whole entry): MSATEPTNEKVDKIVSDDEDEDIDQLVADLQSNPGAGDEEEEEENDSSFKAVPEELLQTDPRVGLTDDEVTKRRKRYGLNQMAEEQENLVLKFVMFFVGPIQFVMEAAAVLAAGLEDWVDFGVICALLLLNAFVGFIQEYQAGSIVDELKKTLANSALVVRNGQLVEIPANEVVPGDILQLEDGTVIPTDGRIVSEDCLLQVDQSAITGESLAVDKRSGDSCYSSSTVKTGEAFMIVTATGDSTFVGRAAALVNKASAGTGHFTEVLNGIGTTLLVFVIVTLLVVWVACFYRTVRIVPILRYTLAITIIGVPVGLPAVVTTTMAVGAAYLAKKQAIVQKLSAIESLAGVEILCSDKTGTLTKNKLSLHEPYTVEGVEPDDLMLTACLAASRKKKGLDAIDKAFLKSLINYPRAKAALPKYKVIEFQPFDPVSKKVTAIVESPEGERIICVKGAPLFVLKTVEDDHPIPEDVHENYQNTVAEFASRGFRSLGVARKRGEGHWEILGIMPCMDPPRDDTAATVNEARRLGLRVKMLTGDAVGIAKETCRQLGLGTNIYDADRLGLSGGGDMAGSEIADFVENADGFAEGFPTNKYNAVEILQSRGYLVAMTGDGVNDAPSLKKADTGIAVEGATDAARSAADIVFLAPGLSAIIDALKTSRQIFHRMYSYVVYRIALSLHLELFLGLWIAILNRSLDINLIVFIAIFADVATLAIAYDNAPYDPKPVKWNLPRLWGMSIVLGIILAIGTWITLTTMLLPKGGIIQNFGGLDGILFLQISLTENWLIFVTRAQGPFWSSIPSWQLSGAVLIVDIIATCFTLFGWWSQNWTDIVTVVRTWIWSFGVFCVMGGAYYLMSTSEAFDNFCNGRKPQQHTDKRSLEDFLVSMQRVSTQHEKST

Question: Which results are given for OC[C@H]1OC(O)[C@H](O)[C@@H](O)[C@@H]1O (stereo partly shown) [Glucose, reference compound]?
Answer: Increase of the rate of H+ extrusion ([1]; 5 mM of glucose): 36%; Range of relative H+ efflux rate ([1]; glucose 5mM alone): 43.33 ± 2.1 ×10^−6 mol min^−1 mg cells^−1; Increase of the rate of H+ extrusion ([2]; 5 mM of glucose): 24%; Range of relative H+ efflux rate ([2]; glucose 5mM alone): 40.00 ± 2.0 ×10^−6 mol min^−1 mg cells^−1; Range of relative H+ efflux rate [3]: 54.95 ± 2.7 ×10^−6 mol min^−1 mg cells^−1

Question: For c1ccc(Cn2cc(COc3cccc4ccccc34)nn2)cc1 [Compound 3c, 1-Benzyl-4-((naphthalen-1-yloxy)methyl)-1H-1,2,3-triazole], which IC50 [4] is on record?
Answer: 66.9 ± 1.84 µg/mL (≈ 212 µM)

Question: And the IC50 [5]?
Answer: 62.2 ± 1.07 µg/mL (≈ 197 µM)

Question: And the IC50 (C. albicans ATCC 90028)?
Answer: 91.2 ± 0.76 µg/mL (≈ 289 µM)

Question: What about the IC50 (C. tropicalis ATCC 750) of the same molecule?
Answer: 38.2 ± 0.83 µg/mL (≈ 121 µM)

Question: And the IC50 [6]?
Answer: 119 ± 2.94 µg/mL (≈ 377 µM)

Question: And the IC50 (C. glabrata ATCC 90030)?
Answer: 107 ± 1.41 µg/mL (≈ 339 µM)

Question: And the IC50 [7]?
Answer: 43.7 ± 1.18 µg/mL (≈ 139 µM)

Question: For COc1cccc2c1C(=O)c1c(O)c3c(c(O)c1C2=O)C[C@@](O)(C(=O)CO)C[C@@H]3O[C@H]1C[C@H](N)[C@H](O)[C@H](C)O1 [Doxorubicin], which IC50 at 48 h [8] is on record?
Answer: > 5 µg/mL

Question: Which results are given for OC(Cn1cncn1)(Cn1cncn1)c1ccc(F)cc1F [FLC, Fluconazole, reference compound]?
Answer: hemolysis at 1 h, 500 μg/mL (Hemolytic assay): 68.6%; Appearance of zone around disks (clear = fungicidal nature, turbid = fungistatic nature) (C. albicans): turbid; MIC [4]: > 1 µg/mL; IC50 [4]: > 1000 µg/mL; Time by which lag phase was over [9]: 16 h; Time by which lag phase was over [10]: 20 h; Time by which lag phase was over [11]: 16 h; Decrease in ergosterol content (ergosterol biosynthesis [12]): 100%; CFU/mL, treated versus untreated cells [13]: no significant difference in CFU/mL; IC50 [5]: < 7.5 µg/mL; IC50 (C. albicans ATCC 90028): 15.6 ± 0.65 µg/mL (≈ 51 µM); IC50 (C. tropicalis ATCC 750): 8.55 ± 1.59 µg/mL (≈ 27.9 µM); IC50 [6]: < 7.5 µg/mL; IC50 (C. glabrata ATCC 90030): 7.81 ± 0.88 µg/mL (≈ 25.5 µM); IC50 [7]: < 7.5 µg/mL; Zone of Inhibition [14]: 26± 1.02 mm; zone of inhibition at 20 µg/disc ([14]; Candida albicans, ATCC90028): 26 mm; zone of inhibition at 20 µg/disc [15]: 27 ± 1.35 mm; Zone of Inhibition ([16]; 20 μg per disk): 24± 0.74 mm; zone of inhibition at 20 µg/disc ([16]; Candida albicans): 24 mm; Decrease in ergosterol content (ergosterol biosynthesis [17]): 96%
